Assay results: US10723723B2, “Substituted bicycle heterocyclic derivatives useful as ROMK channel inhibitors” (BRISTOL-MYERS SQUIBB COMPANY, priority 2016, dated 2020)

Assays:
Assay type in all cases: cell-based
hERG channels = hERG channels (Homo sapiens (Human), UniProt Q12809); assay: hERG Manual Patch Clamp Assay (HEK 293 cells stably expressing hERG channels); settings: for inhibition at 1 µM: human, HEK 293 cells stably expressing hERG channels, pH 7.4
hROMK (human Kir1.1) = hROMK (human Kir1.1) (Homo sapiens (Human), UniProt P48048); assay: Thallium Flux Assay (FluxOR, CHO T-Rex hROMK stable cell line); settings: CHO T-Rex hROMK cells, 10-point concentration response curve; read-out: Human ROMK TH Flux IC50
hROMK = hROMK (Homo sapiens (Human), UniProt P48048); assay: ROMK Manual Patch Clamp Assay; settings: whole-cell manual patch clamp, hROMK current; read-out: ROMK EP IC50
Chain of hROMK (P48048 whole entry): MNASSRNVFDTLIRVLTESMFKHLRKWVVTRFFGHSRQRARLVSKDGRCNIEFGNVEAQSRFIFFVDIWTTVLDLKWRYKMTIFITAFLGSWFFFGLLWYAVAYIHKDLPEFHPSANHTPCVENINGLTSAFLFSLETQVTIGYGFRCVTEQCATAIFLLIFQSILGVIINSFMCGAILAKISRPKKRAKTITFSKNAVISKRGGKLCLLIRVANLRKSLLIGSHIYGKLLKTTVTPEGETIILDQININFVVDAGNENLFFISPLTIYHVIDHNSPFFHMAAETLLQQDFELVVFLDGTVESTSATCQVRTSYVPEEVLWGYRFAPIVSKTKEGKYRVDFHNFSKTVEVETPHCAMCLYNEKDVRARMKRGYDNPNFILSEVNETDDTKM
Description: Cell culture conditions: Cells were maintained in conditions similar to those for Thallium flux assay. hROMK channel expression was induced by adding 0.6 μg/ml of Doxycycline 16-24 hrs prior to the experiments. On the day of experiment, the cells were dissociated using Versene, resuspended in growth media and plated onto coverslips 15 minutes prior to use.
The cells were voltage clamped at −75 mV in whole-cell configuration using an Axopatch 200b or Multiclamp 700b (Molecular Devices) amplifier controlled by pClamp Software (Molecular Devices). The current was recorded by applying a voltage step to −120 mV every 10 seconds. […] At the end of the experiment, the cells were perfused with bath solution containing 2 mM Ba^2+ to isolate the contribution of hROMK current.
Data analysis: Raw current values (5 traces each for control, different compound concentration and Ba^2+ treatment groups) were exported from Clampfit into Microsoft Excel where the current remaining after application of Ba^2+ was subtracted from raw current to obtain hROMK specific current.

Chain of hERG channels (Q12809 whole entry): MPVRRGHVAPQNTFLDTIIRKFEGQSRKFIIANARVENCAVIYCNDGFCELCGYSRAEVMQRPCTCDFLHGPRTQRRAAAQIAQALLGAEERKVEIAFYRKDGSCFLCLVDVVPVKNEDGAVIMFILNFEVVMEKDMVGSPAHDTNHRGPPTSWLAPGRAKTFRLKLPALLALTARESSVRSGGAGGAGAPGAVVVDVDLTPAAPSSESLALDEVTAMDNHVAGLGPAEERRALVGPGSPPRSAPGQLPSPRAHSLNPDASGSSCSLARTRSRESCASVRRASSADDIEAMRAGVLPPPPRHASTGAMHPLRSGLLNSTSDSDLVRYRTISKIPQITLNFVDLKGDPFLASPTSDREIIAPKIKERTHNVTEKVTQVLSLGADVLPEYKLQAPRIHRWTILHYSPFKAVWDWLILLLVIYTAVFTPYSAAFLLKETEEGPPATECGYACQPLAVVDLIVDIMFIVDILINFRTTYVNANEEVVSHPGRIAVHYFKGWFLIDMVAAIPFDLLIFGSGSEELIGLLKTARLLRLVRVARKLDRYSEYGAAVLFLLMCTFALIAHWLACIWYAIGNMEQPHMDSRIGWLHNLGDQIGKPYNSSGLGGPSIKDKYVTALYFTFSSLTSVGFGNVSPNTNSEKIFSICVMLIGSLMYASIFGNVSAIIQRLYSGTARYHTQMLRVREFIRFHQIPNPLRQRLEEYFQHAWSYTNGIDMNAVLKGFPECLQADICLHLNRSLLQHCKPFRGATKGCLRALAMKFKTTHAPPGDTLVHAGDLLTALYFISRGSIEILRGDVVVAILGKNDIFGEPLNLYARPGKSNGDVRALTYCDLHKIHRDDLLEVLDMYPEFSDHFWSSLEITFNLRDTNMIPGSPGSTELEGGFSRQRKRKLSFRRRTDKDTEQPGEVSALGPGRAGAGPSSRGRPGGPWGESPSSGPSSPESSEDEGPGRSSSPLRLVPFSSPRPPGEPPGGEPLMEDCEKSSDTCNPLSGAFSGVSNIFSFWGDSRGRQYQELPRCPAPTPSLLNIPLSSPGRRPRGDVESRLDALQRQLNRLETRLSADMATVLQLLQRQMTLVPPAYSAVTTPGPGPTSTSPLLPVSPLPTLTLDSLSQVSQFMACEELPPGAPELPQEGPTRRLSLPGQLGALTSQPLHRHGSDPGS
Chain of hROMK (human Kir1.1) (P48048 whole entry): as the sequence (P48048 whole entry) above

Row | SMILES | inhibition at 1 µM (hERG channels) | IC50 (hROMK (human Kir1.1)) | IC50 (hROMK) | hERG EP IC50 (% Inh @1 uM) (hERG channels; % inhibition of hERG current at 1 uM, manual patch clamp, HEK 293 cells)
1 | Cc1c(C(O)CNCc2ccc(-c3ccc4oc(=O)n(C)c4c3)nc2)ccc2c1COC2=O (single isomer, unassigned) [Example 23-I, 5-(5-(((2-hydroxy-2-(4-methyl-1-oxo-1,3-dihydroisobenzofuran-5-yl)ethyl)amino)methyl)pyridin-2-yl)-3-methylbenzo[d]oxazol-2(3H)-one] | 13% | 160 nM | 15 nM | 
2 | Cc1c(C(O)CN(C)Cc2ccc(-c3ccc(C#N)c(F)c3)cc2)ccc2c1COC2=O (single isomer, unassigned) [Example 27-I, 3-fluoro-4′-(((2-hydroxy-2-(4-methyl-1-oxo-1,3-dihydroisobenzofuran-5-yl)ethyl)(methyl)amino)methyl)-[1,1′-biphenyl]-4-carbonitrile] | 95% | 40 nM | 6.8 nM | 
3 | Cc1cc(-n2cc(CNCC(O)c3ccc4c(c3C3CC3)COC4=O)cn2)ncc1C#N (single isomer, unassigned) [Example 46-I, 6-(4-(((2-(4-cyclopropyl-1-oxo-1,3-dihydroisobenzofuran-5-yl)2-hydroxyethyl)amino)meth-yl)-1H-pyrazol-1-yl)-4-methylnicotinonitrile] |  | 33 nM | 17 nM | 
4 | Cc1nc(-n2cc(CNC[C@H](O)c3ccc4c(c3C)COC4=O)cn2)ncc1C#N (single isomer, unassigned) [Example 50] | 8.5% | 45 nM | 49 nM | 
5 | COc1cc(-n2cc(CNC(C)C(O)c3ccc4c(c3C)COC4=O)nn2)ncc1C#N (single isomer, unassigned) [Example 91-I, 6-(4-(((1-hydroxy-1-(4-methyl-1-oxo-1,3-dihydroisobenzofuran-5-yl)propan-2-yl)amino)methyl)-1H-1,2,3-triazol-1-yl)-4-methoxynicotinonitrile] | 19% | 21 nM | 11 nM | 
6 | Cc1c(C(O)CN(C)Cc2ccc(-c3ccc4oc(=O)n(C)c4c3)nc2)ccc2c1COC2=O (stereo not drawn) [Example 1-I, 5-(5-(((2-hydroxy-2-(4-methyl-1-oxo-1,3-dihydroisobenzofuran-5-yl)ethyl)(methyl)amino)methyl)pyridin-2-yl)-3-methylbenzo[d]oxazol-2(3H)-one] | 8.7% | 170 nM | 19 nM | 
7 | CN(Cc1ccc(-c2ccc3oc(=O)n(C)c3c2)nc1)C[C@H](O)c1ccc2oc(=O)n(C)c2c1 [Example 6-I] |  |  | 11 nM | 26%
8 | Cc1c(C(O)CNCc2ccc3c(ccn3-c3ccc4c(c3)COC4=O)c2)ccc2c1COC2=O (stereo not drawn) [Example 8-I, 5-(1-hydroxy-2-(((1-(1-oxo-1,3-dihydroisobenzofuran-5-yl)-1H-indol-5-yl)methyl)amino)ethyl)-4-methylisobenzofuran-1(3H)-one] | 83% | 290 nM | 42 nM | 
9 | Cc1c([C@@H](O)CNCc2cnc(-n3c(C)nnc3C)nc2)ccc2c1COC2=O [Example 47, (R)-5-(2-(((2-(3,5-dimethyl-4H-1,2,4-triazol-4-yl)pyrimidin-5-yl)methyl)amino)-1-hydroxyethyl)-4-methylisobenzofuran-1(3H)-one] | 9.7% | 100 nM | 420 nM | 
10 | COc1cc(-n2cnc(CNC[C@H](O)c3ccc4c(c3C)COC4=O)c2)ncc1C#N [Example 51, (R)-6-(4-(((2-hydroxy-2-(4-methyl-1-oxo-1,3-dihydroisobenzofuran-5-yl)ethyl)amino)methyl)-1H-imidazol-1-yl)-4-methoxynicotinonitrile] | 3.4% | 73 nM | 38 nM | 
11 | Cc1cc(-n2cc(CNC[C@H](NS(C)(=O)=O)c3ccc4c(c3C)COC4=O)cn2)ncc1C#N [Example 61, (R)-N-(2-(((1-(5-cyano-4-methylpyridin-2-yl)-1H-pyrazol-4-yl)methyl)amino)-1-(4-methyl-1-oxo-1,3-dihydroisobenzofuran-5-yl)ethyl)methanesulfonamide] | 8.4% | 27 nM | 27 nM | 
12 | COc1nc(-n2cc(CNC[C@H](O)c3ccc4c(c3C)COC4=O)nn2)cc(C)c1C#N [Example 67, (R)-6-(4-(((2-hydroxy-2-(4-methyl-1-oxo-1,3-dihydroisobenzofuran-5-yl)ethyl)amino)methyl)-1H-1,2,3-triazol-1-yl)-2-methoxy-4-methylnicotinonitrile] | 11% | 20 nM | 9.3 nM | 
13 | Cc1cc(-n2cc(CNC[C@H](O)c3ccc4c(c3C)COC4=O)nn2)nc(C)c1C#N [Example 69, (R)-6-(4-(((2-hydroxy-2-(4-methyl-1-oxo-1,3-dihydroisobenzofuran-5-yl)ethyl)amino)methyl)-1H-1,2,3-triazol-1-yl)-2,4-dimethylnicotinonitrile] | 15% | 14 nM | 6.1 nM | 
14 | Cc1nc(-n2cc(CNC[C@H](O)c3ccc4c(c3C)COC4=O)cn2)nc(C)c1C#N [Example 87, (R)-2-(4-(((2-hydroxy-2-(4-methyl-1-oxo-1,3-dihydroisobenzofuran-5-yl)ethyl)amino)methyl)-1H-pyrazol-1-yl)-4,6-dimethylpyrimidine-5-carbonitrile] | 7.5% | 40 nM | 71 nM | 
15 | Cc1nn(-c2ncc(CNC[C@H](O)c3ccc4c(c3C)COC4=O)cn2)cc1C#N [Example 105, (R)-1-(5-(((2-hydroxy-2-(4-methyl-1-oxo-1,3-dihydroisobenzofuran-5-yl)ethyl)amino)methyl)pyrimidin-2-yl)-3-methyl-1H-pyrazole-4-carbonitrile] | 3.4% | 11 nM | 7.8 nM | 
16 | Cc1cn(-c2ncc(CNC[C@H](O)c3ccc4c(c3C)COC4=O)cn2)cn1 [Example 106, (R)-5-(1-hydroxy-2-(((2-(4-methyl-1H-imidazol-1-yl)pyrimidin-5-yl)methyl)amino)ethyl)-4-methylisobenzofuran-1(3H)one] | 2.4% | 26 nM | 9.2 nM | 
17 | Cc1cn(-c2ccc(CNC[C@H](O)c3ccc4c(c3C)COC4=O)cn2)cn1 [Example 108, (R)-5-(1-hydroxy-2-(((6-(4-methyl-1H-imidazol-1-yl)pyridin-3-yl)methyl)amino)ethyl)-4-methylisobenzofuran-1(3H)-one] | 7.3% | 35 nM | 19 nM | 
18 | Cc1c([C@@H](O)CNCc2cnc(-n3cc(C#N)c(C(F)F)n3)nc2)ccc2c1COC2=O [Example 115, (R)-3-(difluoromethyl)-1-(5-(((2-hydroxy-2-(4-methyl-1-oxo-1,3-dihydroisobenzofuran-5-yl)ethyl)amino)methyl)pyrimidin-2-yl)-1H-pyrazole-4-carbonitrile] | 12% | 20 nM | 20 nM | 
19 | COc1cc(-c2ccc(CNC[C@H](O)c3ccc4c(c3C)COC4=O)cn2)ncc1C#N [Example 130, (R)-5′-(((2-hydroxy-2-(4-methyl-1-oxo-1,3-dihydroisobenzofuran-5-yl)ethyl)amino)methyl)-4-methoxy-[2,2′-bipyridine]-5-carbonitrile] | 32% | 8.3 nM | 1.1 nM | 
20 | Cc1c([C@@H](O)CNC(=O)c2cnc(-c3ccc4oc(=O)n(C)c4c3)s2)ccc2c1COC2=O [Example 136, (R)-N-(2-hydroxy-2-(4-methyl-1-oxo-1,3-dihydroisobenzofuran-5-yl)ethyl)-2-(3-methyl-oxo-2,3-dihydrobenzo[d]oxazol-5-yl)thiazole-5-carboxamide] | 15% | 70 nM | 86 nM | 
21 | COc1cc(-c2cc(CNC[C@H](O)c3ccc4c(c3C)COC4=O)on2)ncc1C#N [Example 137, (R)-6-(5-(((2-hydroxy-2-(4-methyl-1-oxo-1,3-dihydroisobenzofuran-5-yl)ethyl)amino)methyl)isoxazol-3-yl)-4-methoxynicotinonitrile] | 7.6% | 35 nM | 26 nM | 
22 | COc1cc(-n2cc(CNC[C@H](O)c3ccc4c(c3C)COC4=O)nn2)ncc1C#N [Example 138, (R)-6-(4-(((2-hydroxy-2-(4-methyl-1-oxo-1,3-dihydroisobenzofuran-5-yl)ethyl)amino)methyl)-1H-1,2,3-triazol-1-yl)-4-methoxynicotinonitrile] | 10% | 43 nM | 18 nM | 
23 | Cc1cc(-n2cc(CNC[C@H](F)c3ccc4c(c3C)COC4=O)cn2)ncc1C#N [Example 167, (R)-6-(4-(((2-fluoro-2-(4-methyl-1-oxo-1,3-dihydroisobenzofuran-5-yl)ethyl)amino)methyl)-1H-pyrazol-1-yl)-4-methylnicotinonitrile] | 41% | 68 nM |  | 
24 | Cc1cc(-n2cc(CNC[C@H](O)c3ccc4c(c3C)COC4=O)c3cccnc32)ncc1C#N [Example 169, (R)-6-(3-(((2-hydroxy-2-(4-methyl-1-oxo-1,3-dihydroisobenzofuran-5-yl)ethyl)amino)methyl)-1H-pyrrolo[2,3-b]pyridin-1-yl)-4-methylnicotinonitrile] | 79% | 59 nM |  | 
25 | COc1cc(-n2cc(CNC[C@H](O)c3ccc4c(c3C)COC4=O)cn2)ncc1C#N [Example 173, (R)-6-(4-(((2-hydroxy-2-(4-methyl-1-oxo-1,3-dihydroisobenzofuran-5-yl)ethyl)amino)methyl)-1H-pyrazol-1-yl)-4-methoxynicotinonitrile] | 77% | 2.4 nM |  | 
26 | Cc1c([C@@H](O)CNCc2ccc(-n3cc(C#N)c(OC(F)F)n3)nc2)ccc2c1COC2=O [Example 175, (R)-3-(difluoromethoxy)-1-(5-(((2-hydroxy-2-(4-methyl-1-oxo-1,3-dihydroisobenzofuran-5-yl)ethyl)amino)methyl)pyridin-2-yl)-1H-pyrazole-4-carbonitrile] | 86% | 3.6 nM |  | 
